# What was measured:
# [1] = target: T1, cellular MTAN activity in V. cholerae N16961 (Vibrio cholerae serotype O1, UniProt Q9KPI8); assay type: cell-based; settings: cellular IC50 versus Ki*
# T1 sequence (Q9KPI8 1-231): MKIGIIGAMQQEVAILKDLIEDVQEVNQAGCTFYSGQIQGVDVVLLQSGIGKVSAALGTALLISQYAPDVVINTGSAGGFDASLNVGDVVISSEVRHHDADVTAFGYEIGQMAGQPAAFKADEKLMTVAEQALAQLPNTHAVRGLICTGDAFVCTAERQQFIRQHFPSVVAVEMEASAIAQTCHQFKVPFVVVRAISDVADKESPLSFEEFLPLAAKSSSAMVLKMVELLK
# V. cholerae N16961 = assay: Growth of V. cholerae; assay type: cell-based, Vibrio cholerae
# E. coli O157:H7 = assay: Growth of E. coli; assay type: cell-based, Escherichia coli
# [2] = tested on: autoinducer-2 production in E. coli O157:H7; assay: Autoinducer-2 production after prolonged incubation; assay type: cell-based, Escherichia coli; settings: E. coli O157:H7, LB, 26 generations, 1 μM; untreated 195-fold
# [3] = tested on: autoinducer-2 production in V. cholerae N16961; assay: as above; assay type: cell-based, Vibrio cholerae; settings: V. cholerae N16961, LB, 26 generations, untreated 540-fold
# [4] = tested on: autoinducer production by V. cholerae N16961; assay: microbe, parasite or virus in culture; settings: Vibrio cholerae, read-out: AI Inhibition IC50, BB170
# VcMTAN = target: T2, VcMTAN (Vibrio cholerae serotype O1, UniProt Q9KPI8); assay: VcMTAN substrate kinetics, loss of MTA at 274 nm; assay type: biochemical
# T2 sequence (Q9KPI8 1-231): T1 sequence (Q9KPI8 1-231)
# E. coli MTAN (EcMTAN) = settings: read-out: dissociation constant; cited from earlier work
smiles,measurement,setting,value
"CCCCSC[C@H]1CN(Cc2c[nH]c3c(N)ncnc23)C[C@@H]1O [BuT-DADMe-ImmA, 5′-butylthio-DADMe-ImmucillinA]",increase above Ki* required to inhibit VcMTAN activity in the cell,[1],30 fold
same,growth of cells in the biofilm assay,"V. cholerae N16961; V. cholerae N16961, 1 μM, static, 25 °C",did not inhibit growth
same,growth,"V. cholerae N16961; V. cholerae N16961, 26 generations, 1 or 2.5 μM",remained uninhibited
same,effect on cell growth (OD600),"V. cholerae N16961; overnight culture, concentrations up to 1 μM",without affecting growth
same,growth of cells in the biofilm assay,"E. coli O157:H7; E. coli O157:H7, 1 μM, static, 25 °C",did not inhibit growth
same,growth,"E. coli O157:H7; E. coli O157:H7, 26 generations, 1 or 2.5 μM",remained uninhibited
same,growth,"E. coli O157:H7; E. coli O157:H7 and MTAN knockout strain, AB medium, up to 0.5 μM",no growth defects
same,light induction in BB170,[2],1.4 fold
same,quorum sensing signal (light induction in BB170),[3]; 1 μM,4.2 fold
same,quorum sensing signal (light induction in BB170),[3]; 2.5 μM,1.3 fold
same,IC50,[4],1.4 ± 0.3 nM
"CSC[C@H]1O[C@@H](n2cnc3c(N)ncnc32)[C@H](O)[C@@H]1O [MTA, methylthioadenosine]",Km,VcMTAN,3 µM
same,kcat,VcMTAN,2 s⁻¹
"CSC[C@H]1CN(Cc2c[nH]c3c(N)ncnc23)C[C@@H]1O [MT-DADMe-ImmA, 5′-methylthio-DADMe-ImmucillinA]",Ki,E. coli MTAN (EcMTAN),0.002 nM
same,IC50,[4],0.94 ± 0.13 nM
"CCSC[C@H]1CN(Cc2c[nH]c3c(N)ncnc23)C[C@@H]1O [EtT-DADMe-ImmA, 5′-ethylthio-DADMe-ImmucillinA]",IC50,[4],11 ± 2 nM

# — PMC2743263 (Nature chemical biology, 2009)
